# Data: article PMC6934184, “Selective DNA-PKcs inhibition extends the therapeutic index of localized radiotherapy and chemotherapy” (The Journal of Clinical Investigation, 2019)
# Target: T1, ABL1 Y253F (Homo sapiens, UniProt P00519, Y253F)
# T1 construct: purchased Thermo Fisher Scientific (Life Technologies) SelectScreen
# Test: SelectScreen Z'LYTE
# Format: biochemical
# Outline: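 SelectScreen broad panel; activity (Z'LYTE, Adapta) plus binding formats. ATP: Km app for CSF1R Z'LYTE; 10 for CAMK1 Adapta. Readout = % per kinase.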
structure (smiles),measurement,value
CN(C(=O)CN1CCOCC1)c1ccc2sc3c(-c4cccc5c(=O)cc(N6CC7CCC(C6)O7)oc45)cccc3c2c1 [NU5455],inhibition at 1 µM,5.9%
